Values joined by “and” are separate entries in the source; they are usually repeats but may differ in a detail not shown here. Equal entries are not always repeated.
What was measured:
[1] = test system: Creatine Kinase; assay: Creatine kinase expression in Ad5-wt-ERα infected HAECT-1 cells (Table 1); format: cell-based, human; conditions: relative to the maximal stimulation observed with E2
Method: T-175 flasks of 100% confluent HAECT-1 cells (immortalized human aortic endothelial cells) were washed with 8 mL of HBSS (HEPES buffered saline solution) and infected for four hours with 6 mL of a 1:10 dilution of Ad5-wt-hERα virus (an adenovirus transfection vector that mediates CMV promoter driven expression of human ERα) in phenol red free Endothelial Cell Basal medium (Clonetics, San Diego Calif., Catalog # CC-3129) containing 0.25% bovine serum albumin (EBM-BSA). After four hours, cells were washed with EBM-BSA and incubated overnight in the same medium. Following overnight incubation, cells were washed with EBM-BSA and infected for 2 hours with 6 mL of a 1:10 dilution of Ad5-3x(NF-κB).Luc virus (Adenovirus luciferase expression vector driven by 3 repeats of the MHC NF-κb site 5′ to the thymidine kinase promoter) in EBM-BSA. […]
ERα infected HAECT-1 cells or control cells were thawed, diluted 42× in warm EBM-BSA, plated into 96-well plates at 0.1 mL/well and incubated for 4 hours at 34° C. […] Luciferase was determined on a Wallac Victor Luminometer (Gaithersburg, Md.) using 10 μL of lysate and mixing with 100 μL of Promega Luciferase Assay reagent. Creatine kinase was determined from the rate of increase in A340 following addition of 100 μL of CK assay reagent (Sigma, cat. No 47-10) to the remainder of the cell lysate. […]

[2] = test system: NF-κB; assay: IL-1β stimulated NF-κB reporter activity in ERα expressing HAECT-1 cells; format: cell-based, human; conditions: ERα expressing HAECT-1 cells, FIG. 1A
Method: (§1) HAECT-1 cells (Chadwick C C, et al., Proc Natl Acad Sciences, 2005, 102(7): 2543-2548) were cultured in EGM (GIBCO, Rockville, Md.) containing 10% FBS, 1% GlutaMAX and 0.1% Antimycotic-Antibiotic in Falcon T-175 culture flasks at 34° C. in 5% CO2 and infected for four hours with Ad5-wt-ER virus. After overnight recovery, the cells were infected for 2 hours with the Ad5-3x(NFκB).Luc or Ad5-IL6.Luc virus. Compound 67 and 2 ng/ml IL-1 were added to the cells for 15-20 h and the cell lysate was assayed for luciferase activity and evaluated for CK expression (Stanbio Laboratories, Texas). The values are reported as mean±SEM with n=4 from at least 3 independent experiments.

[3] = test system: CK; assay: CK activity in lysate of ERα expressing HAECT-1 cells; format: cell-based, human
Method: (A) The effect of compound 67 on NF-κB mediated luciferase reporter activity in HAECT-1 cells expressing ERα. […] (C) The effect of compound 67 on the human IL-6 promoter luciferase reporter activity in HAECT-1 cells expressing either ERα (squares) or ERβ (diamonds). (D) The remaining lysate from (A) was used to determine CK activity.
as §1

[4] = test system: IL-6; assay: IL-6 expression (ELISA) in Ad5-wt-ERα infected HAECT-1 cells (Table 1); format: cell-based, human
[5] = test system: Pseudomonas aeruginosa 12.4.4; assay: Neutropenic rat model of Pseudomonas sepsis; format: in vivo, Sprague-Dawley rats
Method: The neutropenic rat model of pseudomonas sepsis has been previously described (Opal S M, et al., Shock 15(4):285-290, 2001). The experiments were conducted in specific pathogen-free female, Albino, Sprague-Dawley rats (Charles River Breeding Laboratories, Wilmington, Mass.) weighing 150-200 grams at the beginning of the experiments. Animals were treated with cefamandole (100 mg/kg intramuscularly daily) followed by oral colonization with Pseudomonas aeruginosa 12.4.4 (immunotype 6, A. McManus, San Antonio, Tex.) by orogastric feeding of 10^6 bacterial colony forming units at time 0, 48, and 96 hours.
Cyclophosphamide (Bristol-Myers, Evansville, Ind.) was given intraperitoneally at a dose of 150 mg/kg at time 0, and 50 mg/kg interperitoneally at 72 hours. Animals were followed daily with clinical examination of body temperature using a non-contact, digital, infrared thermometer (Horiba Instruments-Marksen Sciences, Phoenix, Ariz.) and body weight. Compound 67 (50 mg/kg) or corn oil control (n=12 in both groups) was administered orally by orogastric feeding beginning on day 4 after the first dose of cyclophosphamide and continuing for 8 days for the survival study. In an additional set of experiments, compound 1 (50 mg/kg) or control (n=8 in both groups) was administered every other day (day 4, 6, 8) and animals were sacrificed at day 8 for histopathologic studies. The distal 10 centimeters of ileum were resected and used for histopathological examination. The lumen was washed with phosphate buffered saline to remove residual particulate material prior to analysis and fixation. The mucosal surface epithelium was sampled for electromicroscopic studies and placed in gluteraldehyde fixative at the time of sacrifice. A 10 mm segment of ileal tissue was utilized for mucosal mass measurement.
Animals were assessed clinically and pathologically by daily body weight, body temperature, presence of bacteremia, circulating endotoxin levels, and pathologic evidence of damage to the gastrointestinal epithelium and liver by light microscopy and electron microscopy. The investigators performing the animal experiments were not blinded to the treatment assignment; however, an independent pathologist who was unaware of the treatment assignment for each animal performed the light microscopy and electron microscopy interpretation. A pathological injury scale of 0-4 was used to assess the degree of mucosal thinning, ulceration, and disruption.

Q: For `COc1ccccc1[C@H](c1cccc2ccccc12)[C@@](C)(C#N)C(=O)N1CCC(c2cccc(C(F)(F)F)c2)CC1` [Example 67, (S,S)-3-(2-methoxyphenyl)-2-methyl-3-(1-naphthyl)-2-({4-[3-(trifluoromethyl)phenyl]piperidin-1-yl}carbonyl)propanenitrile], which “Creatine Kinase Efficacy” value [1] is on record?
A: 41% and 58%

Q: What about the “efficacy compared with E2, NF-κB reporter” value [2] of the same molecule?
A: 94%

Q: What about the IC50 ([2]; Homo sapiens, HAECT1) of the same molecule?
A: 122 nM

Q: And the “elevation of CK activity” value ([3]; at 1 μM)?
A: approximately 20%

Q: What about the “stimulation of CK expression” value ([3]; compared with E2, FIG. 1D) of the same molecule?
A: did not stimulate CK expression comparable to E2

Q: What about the IC50 ([4]; Homo sapiens, HAECT1, Ad5-wt-ERα infected HAECT-1 cells, IL-1 stimulated, read-out: Interleukin-6 IC50) of the same molecule?
A: 35 nM

Q: And the “Interleukin-6 Efficacy” value ([4]; relative to the maximal inhibition observed with E2)?
A: 45%

Q: What about the “electron microscopy of small intestinal enterocyte architecture, tight junctions, organelle structure” value ([5]; 50 mg/kg) of the same molecule?
A: greater preservation

Q: And the “prevention of lethality (Kaplan-Meier survival)” value ([5]; 50 mg/kg orally daily from day 4, FIG. 2)?
A: highly effective in the prevention of lethality

Q: And the “small bowel mucosal mass” value ([5]; 50 mg/kg, p<0.01 vs control, FIG. 4B)?
A: 76±21 mg/10 cm segment

Q: And the “levels of bacteremia and endotoxemia” value ([5]; day 6 after first cyclophosphamide dose, FIG. 3)?
A: Reduced levels

Q: What about the “histopathologic injury score of gastrointestinal mucosa” value ([5]; scale 0-4, 50 mg/kg, day 8, p=0.02 vs control, FIG. 4A) of the same molecule?
A: 0.6±0.1

From patent US20050256132A1, “Use of ER selective NF-kB inhibitors for the treatment of sepsis” (priority 2003, published 2005)
